Source: patent US20210147811A1, “METHODS FOR IN VITRO EXPANSION OF ADULT TISSUE STEM CELLS” (CEDARS-SINAI MEDICAL CENTER, priority 2018, published 2021)

Key:
Assay type in all cases: cell-based
distal progenitor cells = assay: Differentiation potential of distal progenitors after 3D organoid culture with inhibitors; settings: 14 days with Pifithrin-alpha, ROCKi and SB431542, then 7 days without inhibitors, PDPN and SPC staining
Description: FIG. 16. […] Distal progenitor cells were cultured as 3D organoids for 14 days in presence of Pifithrin-alpha, ROCKi and SB431542 followed by culture for 7 days in media without all three inhibitors. […] DAPI (blue) is a nuclear stain.
(§1) Distal progenitor cells were cultured as 3D organoids for 14 days in presence of Pifithrin-alpha, ROCKi and SB431542 followed by culture for 7 days in media without all three inhibitors. […] Addition of ROCKi (in presence of SB431542) increases the colony forming efficiency of freshly isolated club cells (regional stem cells which maintain certain cell types in the bronchiolar epithelium) whereas addition of Pifithrin alpha (in presence of SB431542) increases the size of Scgb1a1-derived organoids. Addition of both ROCKi (in presence of SB431542) increases the colony forming efficiency of freshly isolated murine proximal total epithelial cells (isolated from the murine trachea).

[1] = tested on: freshly isolated club cells; assay: Organoid culture of lineage labelled murine club cells; settings: GFP+ club cells, in presence of SB431542
Text: FIG. 17. Effect of ROCK and P53 inhibition on lineage labelled murine club cells. GFP^+ club cells were isolated from tamoxifen treated Scgb1a1-CreER/ROSARG mice. Addition of ROCKi (in presence of SB431542) increases the colony forming efficiency of freshly isolated club cells (regional stem cells which maintain certain cell types in the bronchiolar epithelium) whereas addition of Pifithrin alpha (in presence of SB431542) increases the size of Scgb1a1-derived organoids.
as §1

[2] = tested on: freshly isolated alveolar type II cells; assay: Organoid culture of lineage labelled murine alveolar type II cells; settings: GFP+ alveolar type II cells, in presence of SB431542
Text: FIG. 15. Effect of ROCK and P53 inhibition on lineage labelled murine alveolar type II cells. GFP^+ alveolar type II cells were isolated from tamoxifen treated SPC-CreER/ROSARG mice. Addition of both ROCKi and Pifithrin alpha (in presence of SB431542) increases the colony forming efficiency of freshly isolated alveolar typeII cells (regional stem cells which maintain the epithelium of the air sacs in the lung). The effect is synergistic for their combined use, similar to that seen for total distal epithelial cells in the previous figures.
(§2) ROCKi increases the colony forming efficiency when murine distal total epithelial cells (isolated from the lung without trachea) are pre-cultured on collagen coated plates for 24 hrs prior after initial isolation. The effect on size is more pronounced when cells are precultured for 24 hrs on collagen coated plates after initial isolation. The drop in CFE in the Pifithrin alpha+ROCKi group is likely due space and nutrient availability constraints due to the large number of organoids per well. Addition of both ROCKi and Pifithrin alpha (in presence of SB431542) increases the colony forming efficiency of freshly isolated alveolar type II cells (regional stem cells which maintain the epithelium of the air sacs in the lung). The effect is synergistic for their combined use, similar to that seen for total distal epithelial cells in the previous figures.

[3] = tested on: murine pre-cultured distal total epithelial cells; assay: 3D organoid culture of murine distal total epithelial cells pre-cultured 24 hrs on collagen coated plates; settings: pre-cultured on collagen coated plates for 24 hrs after isolation, +SB431542
Text: FIG. 4. Effect of pre-culturing—Day 3. Pre-culturing cells on collagen coated plates for 24 hrs after initial isolation increases the rate of organoid formation, with organoids being visible as early as day 3 in culture.
FIG. 5. Effect of pre-culturing—Day 8. Addition of Pifithrin α causes an increase in organoids size, while addition of ROCKi causes an increase in the colony forming efficiency. This effect is more pronounced when cells are pre-cultured for 24 hrs on collagen coated plates after initial isolation.
FIG. 14. Effect of inhibitors on murine pre-cultured distal total epithelial cells in (+SB431542). Addition Pifithrin alpha increases organoid size while addition of ROCKi increases the colony forming efficiency when murine distal total epithelial cells (isolated from the lung without trachea) are pre-cultured on collagen coated plates for 24 hrs prior after initial isolation. The effect on size is more pronounced when cells are precultured for 24 hrs on collagen coated plates after initial isolation. The drop in CFE in the Pifithrin alpha+ROCKi group is likely due space and nutrient availability constraints due to the large number of organoids per well.
as §2

## Cc1ccc(C(=O)Cn2c3c(sc2=N)CCCC3)cc1 [Pifithrin α]
Distal progenitor cells; listed as Pifithrin alpha
  differentiation potential: do not alter
Distal progenitor cells; listed as Pifithrin-alpha
  differentiation potential: did not alter
[1]
  size of Scgb1a1-derived organoids: increases
[2]
  colony forming efficiency: increases
  size of the alveolar organoids: does not increase
[3]
  organoid size: increase
[3]; listed as Pifithrin alpha
  organoid size: increases
